Laboratory results as given in the supplement of paper PMC11919725.

Legend:
Jurkat [1] = assay: confluency relative to DMSO, 18 h (ratio); higher = more viable
Procedure, shortened: (§1)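 Cells (Jurkat, or primary CD4+/CD8+ T cells either naive or stimulated 48 h with CD3/CD28 Dynabeads) were incubated with compound for 18 h at 37 °C, 5% CO2, across 1 nM–10 µM in log10 steps. Each 100 µl suspension was then placed in a 96-well plate with IncuCyte Cytotox Dye and alamarBlue and imaged by phase contrast at ×10, five images per well, hourly over 3 h. Confluency values come from the Basic Analyzer and are relative to the mean of the control wells.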

[2] = tested on: Primary T cells CD4+ activated; assay: as above
Procedure, shortened: as §1

[3] = tested on: Primary T cells CD4+ naive; assay: as above
Procedure, shortened: as §1

[4] = tested on: Primary T cells CD8+ activated; assay: as above
Procedure, shortened: as §1

[5] = tested on: Primary T cells CD8+ naive; assay: as above
Procedure, shortened: as §1

Jurkat [6] = assay: metabolic activity relative to DMSO, 18 h (ratio); higher = more viable
Procedure, shortened: (§2)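 Compound was added at 1 nM–10 µM (log10 steps) for 18 h at 37 °C, 5% CO2 to Jurkat cells or to primary CD4+/CD8+ T cells that were naive or had been activated 48 h with CD3/CD28 Dynabeads. After alamarBlue was added to 10% v/v final, fluorescence (excitation 544 nm, emission 584 nm) was measured 3.5 h later. Values for metabolic activity are normalised to the mean of vehicle controls.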

[7] = tested on: Primary T cells CD4+ activated; assay: as above
Procedure, shortened: as §2

[8] = tested on: Primary T cells CD4+ naive; assay: as above
Procedure, shortened: as §2

[9] = tested on: Primary T cells CD8+ activated; assay: as above
Procedure, shortened: as §2

[10] = tested on: Primary T cells CD8+ naive; assay: as above
Procedure, shortened: as §2

Jurkat [11] = assay: cytotoxicity relative to DMSO, 18 h (ratio); higher = less cell death (drugs called cytotoxic fall below 1)
Procedure, shortened: (§3)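 The assay used Jurkat cells or naive or CD3/CD28 Dynabead-activated (48 h) primary CD4+/CD8+ T cells, incubated with compound at 1 nM–10 µM in log10 steps for 18 h at 37 °C, 5% CO2. Cytotoxicity was assessed with IncuCyte Cytotox Dye and IncuCyte fluorescence imaging, corrected for confluency and scaled to mean control signals.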

[12] = tested on: Primary T cells CD4+ activated; assay: as above
Procedure, shortened: as §3

[13] = tested on: Primary T cells CD4+ naive; assay: as above
Procedure, shortened: as §3

[14] = tested on: Primary T cells CD8+ activated; assay: as above
Procedure, shortened: as §3

[15] = tested on: Primary T cells CD8+ naive; assay: as above
Procedure, shortened: as §3

Cc1[nH]c2ccccc2c1CCNCc1ccc(C=CC(=O)NO)cc1 [Panobinostat]
confluency (Jurkat [1]; 1 nM): 0.912 | confluency (Jurkat [1]; 10 nM): 0.937 | confluency (Jurkat [1]; 100 nM): 1.01 | confluency (Jurkat [1]; 1000 nM): 0.992 | confluency (Jurkat [1]; 10000 nM): 0.978 | confluency ([2]; 1 nM): 1.04 | confluency ([2]; 10 nM): 1.01 | confluency ([2]; 100 nM): 1.17 | confluency ([2]; 1000 nM): 1.35 | confluency ([2]; 10000 nM): 1.02 | confluency ([3]; 1 nM): 1.2 | confluency ([3]; 10 nM): 1.02 | confluency ([3]; 100 nM): 1.29 | confluency ([3]; 1000 nM): 1.13 | confluency ([3]; 10000 nM): 0.869 | confluency ([4]; 1 nM): 0.974 | confluency ([4]; 10 nM): 0.886 | confluency ([4]; 100 nM): 1.04 | confluency ([4]; 1000 nM): 1.26 | confluency ([4]; 10000 nM): 1.21 | confluency ([5]; 1 nM): 1.19 | confluency ([5]; 10 nM): 0.473 | confluency ([5]; 100 nM): 1.08 | confluency ([5]; 1000 nM): 0.774 | confluency ([5]; 10000 nM): 0.932 | metabolic activity (Jurkat [6]; 1 nM): 1.05 | metabolic activity (Jurkat [6]; 10 nM): 0.782 | metabolic activity (Jurkat [6]; 100 nM): 0.681 | metabolic activity (Jurkat [6]; 1000 nM): 0.72 | metabolic activity (Jurkat [6]; 10000 nM): 0.849 | metabolic activity ([7]; 1 nM): 0.998 | metabolic activity ([7]; 10 nM): 0.826 | metabolic activity ([7]; 100 nM): 0.627 | metabolic activity ([7]; 1000 nM): 0.616 | metabolic activity ([7]; 10000 nM): 0.875 | metabolic activity ([8]; 1 nM): 0.856 | metabolic activity ([8]; 10 nM): 0.957 | metabolic activity ([8]; 100 nM): 0.728 | metabolic activity ([8]; 1000 nM): 0.726 | metabolic activity ([8]; 10000 nM): 0.813 | metabolic activity ([9]; 1 nM): 1 | metabolic activity ([9]; 10 nM): 0.909 | metabolic activity ([9]; 100 nM): 0.738 | metabolic activity ([9]; 1000 nM): 0.725 | metabolic activity ([9]; 10000 nM): 0.778 | metabolic activity ([10]; 1 nM): 0.913 | metabolic activity ([10]; 10 nM): 0.881 | metabolic activity ([10]; 100 nM): 0.836 | metabolic activity ([10]; 1000 nM): 0.779 | metabolic activity ([10]; 10000 nM): 0.766 | cytotoxicity (Jurkat [11]; 1 nM): 0.94 | cytotoxicity (Jurkat [11]; 10 nM): 0.843 | cytotoxicity (Jurkat [11]; 100 nM): 0.933 | cytotoxicity (Jurkat [11]; 1000 nM): 0.873 | cytotoxicity (Jurkat [11]; 10000 nM): 0.921 | cytotoxicity ([12]; 1 nM): 1.04 | cytotoxicity ([12]; 10 nM): 1.08 | cytotoxicity ([12]; 100 nM): 1.32 | cytotoxicity ([12]; 1000 nM): 1.5 | cytotoxicity ([12]; 10000 nM): 0.92 | cytotoxicity ([13]; 1 nM): 1.29 | cytotoxicity ([13]; 10 nM): 0.906 | cytotoxicity ([13]; 100 nM): 1.33 | cytotoxicity ([13]; 1000 nM): 1.19 | cytotoxicity ([13]; 10000 nM): 0.853 | cytotoxicity ([14]; 1 nM): 0.993 | cytotoxicity ([14]; 10 nM): 0.888 | cytotoxicity ([14]; 100 nM): 1.11 | cytotoxicity ([14]; 1000 nM): 1.34 | cytotoxicity ([14]; 10000 nM): 1.3 | cytotoxicity ([15]; 1 nM): 1.34 | cytotoxicity ([15]; 10 nM): 0.493 | cytotoxicity ([15]; 100 nM): 1.16 | cytotoxicity ([15]; 1000 nM): 0.814 | cytotoxicity ([15]; 10000 nM): 1.06

CCCCc1nc2cc(C=CC(=O)NO)ccc2n1CCN(CC)CC [Pracinostat]
confluency (Jurkat [1]; 1 nM): 0.945 | confluency (Jurkat [1]; 10 nM): 0.95 | confluency (Jurkat [1]; 100 nM): 0.862 | confluency (Jurkat [1]; 1000 nM): 1.04 | confluency (Jurkat [1]; 10000 nM): 0.908 | confluency ([3]; 1 nM): 0.744 | confluency ([3]; 10 nM): 1.13 | confluency ([3]; 100 nM): 1.29 | confluency ([3]; 1000 nM): 1.05 | confluency ([3]; 10000 nM): 0.873 | metabolic activity (Jurkat [6]; 1 nM): 1.09 | metabolic activity (Jurkat [6]; 10 nM): 0.964 | metabolic activity (Jurkat [6]; 100 nM): 1.03 | metabolic activity (Jurkat [6]; 1000 nM): 0.737 | metabolic activity (Jurkat [6]; 10000 nM): 0.621 | metabolic activity ([8]; 1 nM): 0.982 | metabolic activity ([8]; 10 nM): 0.951 | metabolic activity ([8]; 100 nM): 0.917 | metabolic activity ([8]; 1000 nM): 0.946 | metabolic activity ([8]; 10000 nM): 0.877 | cytotoxicity (Jurkat [11]; 1 nM): 0.918 | cytotoxicity (Jurkat [11]; 10 nM): 0.836 | cytotoxicity (Jurkat [11]; 100 nM): 0.799 | cytotoxicity (Jurkat [11]; 1000 nM): 1.02 | cytotoxicity (Jurkat [11]; 10000 nM): 0.852 | cytotoxicity ([13]; 1 nM): 0.794 | cytotoxicity ([13]; 10 nM): 1.19 | cytotoxicity ([13]; 100 nM): 1.38 | cytotoxicity ([13]; 1000 nM): 1.03 | cytotoxicity ([13]; 10000 nM): 0.897

CN1CCc2c(c3ccccc3n2Cc2ccc(C(=O)NO)cc2)C1 [Tubastatin A]
confluency (Jurkat [1]; 1 nM): 0.97 | confluency (Jurkat [1]; 10 nM): 0.971 | confluency (Jurkat [1]; 100 nM): 0.987 | confluency (Jurkat [1]; 1000 nM): 0.932 | confluency (Jurkat [1]; 10000 nM): 0.841 | metabolic activity (Jurkat [6]; 1 nM): 1.23 | metabolic activity (Jurkat [6]; 10 nM): 1.23 | metabolic activity (Jurkat [6]; 100 nM): 1.24 | metabolic activity (Jurkat [6]; 1000 nM): 1.15 | metabolic activity (Jurkat [6]; 10000 nM): 1.19 | cytotoxicity (Jurkat [11]; 1 nM): 1.04 | cytotoxicity (Jurkat [11]; 10 nM): 1.02 | cytotoxicity (Jurkat [11]; 100 nM): 1.05 | cytotoxicity (Jurkat [11]; 1000 nM): 0.953 | cytotoxicity (Jurkat [11]; 10000 nM): 0.893

Nc1cc(F)ccc1NC(=O)c1ccc(CNC(=O)C=Cc2cccnc2)cc1 [Tucidinostat]
confluency (Jurkat [1]; 1 nM): 1 | confluency (Jurkat [1]; 10 nM): 0.981 | confluency (Jurkat [1]; 100 nM): 0.912 | confluency (Jurkat [1]; 1000 nM): 0.878 | confluency (Jurkat [1]; 10000 nM): 1.03 | confluency ([3]; 1 nM): 1.08 | confluency ([3]; 10 nM): 1.18 | confluency ([3]; 100 nM): 1.3 | confluency ([3]; 1000 nM): 1.26 | confluency ([3]; 10000 nM): 0.617 | metabolic activity (Jurkat [6]; 1 nM): 0.891 | metabolic activity (Jurkat [6]; 10 nM): 0.945 | metabolic activity (Jurkat [6]; 100 nM): 0.974 | metabolic activity (Jurkat [6]; 1000 nM): 0.952 | metabolic activity (Jurkat [6]; 10000 nM): 0.882 | metabolic activity ([8]; 1 nM): 0.862 | metabolic activity ([8]; 10 nM): 1.05 | metabolic activity ([8]; 100 nM): 0.872 | metabolic activity ([8]; 1000 nM): 0.881 | metabolic activity ([8]; 10000 nM): 0.697 | cytotoxicity (Jurkat [11]; 1 nM): 1.08 | cytotoxicity (Jurkat [11]; 10 nM): 0.992 | cytotoxicity (Jurkat [11]; 100 nM): 0.929 | cytotoxicity (Jurkat [11]; 1000 nM): 0.871 | cytotoxicity (Jurkat [11]; 10000 nM): 0.987 | cytotoxicity ([13]; 1 nM): 1.13 | cytotoxicity ([13]; 10 nM): 1.05 | cytotoxicity ([13]; 100 nM): 1.42 | cytotoxicity ([13]; 1000 nM): 1.19 | cytotoxicity ([13]; 10000 nM): 0.636
